The text below walks through data of patent publication US20230086913A1, “USE OF SOPHOROLIPIDS AS FEED ADDITIVE” (DSM IP ASSETS B.V., priority 2017, published 2023).

One assay deals with human PBLs. The assay is described as follows: Effect of sophorolipids on inflammatory mediators in LPS-treated human PBLs. In kind it is cell-based. Conditions: 1, 5 and 10 μm. On the procedure:
PBLs were isolated from human blood. PBLs were treated with LPS to induce inflammatory response in the presence of different concentrations (1 μm, 5 μm, and 10 μm) of six sophorolipids: […]); BSL(6'OH,6''OH); and BSL(6'Ac,6''Ac).

Another assay concerns Microglial cells. The experiment in a line: Effect of sophorolipid pre-treatment on inflammatory mediators in LPS-stimulated microglia. Conditions: E22 rat primary microglia, 24 h pre-treatment, LPS stimulation. It counts as cell-based, rats. On the procedure:
Microglial cells were obtained from primary microglial cultures from […] rats. On day 1, microglial cells were seeded in 96-well plates and allowed to adhere for 24 hours. On day 3, the microglial cells were pre-treated with sophorolipid for 24 hours (n=11). On day 4, the microglial cells were stimulated with lipopolysaccharide (LPS). On day 5, supernatants were collected and analysed for cytokines of interest.

Read-outs that look alike come from different tables or passages of the source.

As for `CCCCOC(=O)CCCCCCC/C=C\CCCCCC[C@H](C)O[C@@H]1O[C@H](COC(C)=O)[C@@H](O)[C@H](O)[C@H]1O[C@@H]1O[C@H](COC(C)=O)[C@@H](O)[C@H](O)[C@H]1O` (relative stereo) [BSL(6′Ac,6″Ac), butyl-17-L-[(2′-0-β-D-glucopyranosyl-β-D-glucopyranosyl)-oxy]-cis-9-octadecenoate-6′-6″-diacetate], the TNF-α secretion result in the assay with human PBLs is “decreased”.

On to Sophorolipid, for which the IC50 in the assay on Microglial cells (read-out: PGE2 secretion, 1050) turned out to be 29.8 µM; with Microglial cells (read-out: TNF-alpha secretion, 1050) it was 21.2 µM.

Regarding `CCOC(=O)CCCCCCC/C=C\CCCCCC[C@H](C)O[C@@H]1O[C@H](COC(C)=O)[C@@H](O)[C@H](O)[C@H]1O[C@@H]1O[C@H](COC(C)=O)[C@@H](O)[C@H](O)[C@H]1O` (relative stereo) [ESL(6′Ac,6″Ac), ethyl-17-L-[(2′-0-β-D-glucopyranosyl-β-D-glucopyranosyl)-oxy]-cis-9-octadecenoate-6′-6-diacetate], in the assay on human PBLs, the IL-1β secretion result is listed as “decreased”, the IL-6 secretion entry is on record as “decreased”, the IL-8 secretion result is recorded as “decreased” and the MIP-1β secretion entry was “decreased”. The TNF-α secretion entry in the assay with human PBLs is “decreased”.

As to `CCOC(=O)CCCCCCC/C=C\CCCCCC[C@H](C)O[C@@H]1O[C@H](CO)[C@@H](O)[C@H](O)[C@H]1O[C@@H]1O[C@H](COC(C)=O)[C@@H](O)[C@H](O)[C@H]1O` (relative stereo) [ESL(6′OH,6″Ac), ethyl-17-L-[(2′-0-β-D-glucopyranosyl-β-D-glucopyranosyl)-oxy]-cis-9-octadecenoate-6″-acetate], in the assay with human PBLs, the MIP-1β secretion entry is “decreased” and the TNF-α secretion entry is recorded as “decreased”.
